Measurements as given in PubChem BioAssay AID1963970 (Molecular Pharmacology Branch, DTP, NCI, 2024).

Test system: 931267-113-T-J1-PDC multicell spheroid viability
Experiment: Anticancer human tumor 931267-113-T-J1-PDC patient-derived colon adenocarcinoma cell line growth inhibition [PI3K]
Conditions: for IC50: curve of first compound; for viability, T/C: stronger effect = lower value
In short: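 Tumor cells were combined with HUVEC and MSCs into spheroids, then dosed with PI3K-inhibitor combinations over half-log ranges capped near clinical Cmax or 10 microM.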
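Further: viability read 7 days after compound addition.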

Work on CC1(C)CCC(Nc2ncc(C(F)(F)F)c(-c3c[nH]c4c(P(C)(C)=O)c(C#N)ccc34)n2)CN1 (centres undefined) + COc1c(OCCCN2CCOCC2)ccc2c3n(c(=NC(=O)c4cnc(N)nc4)nc12)CCN3 yielded an IC50 (second compound 0.00316 µM) greater than 10000 nM, an IC50 (second compound 0.01 µM) greater than 10000 nM and an IC50 (second compound 0.0316 µM) greater than 10000 nM. It also gave an IC50 (second compound 0.1 µM) of 4290 nM, an IC50 (second compound 0.316 µM) of less than 31.6 nM and an IC50 (second compound 1 µM) of less than 31.6 nM. It also gave a viability, T/C (second compound 0.00316 µM, first compound 0.0316 µM) of 92.5%, a viability, T/C (second compound 0.00316 µM, first compound 0.1 µM) of 94.2% and a viability, T/C (second compound 0.00316 µM, first compound 0.316 µM) of 91.6%. It also gave a viability, T/C (second compound 0.00316 µM, first compound 1 µM) of 81.2%, a viability, T/C (second compound 0.00316 µM, first compound 3.16 µM) of 76.5% and a viability, T/C (second compound 0.00316 µM, first compound 10 µM) of 69.3%. It also gave a viability, T/C (second compound 0.01 µM, first compound 0.0316 µM) of 97.3%, a viability, T/C (second compound 0.01 µM, first compound 0.1 µM) of 89.5% and a viability, T/C (second compound 0.01 µM, first compound 0.316 µM) of 81.5%. It also gave a viability, T/C (second compound 0.01 µM, first compound 1 µM) of 83.5%, a viability, T/C (second compound 0.01 µM, first compound 3.16 µM) of 77.3% and a viability, T/C (second compound 0.01 µM, first compound 10 µM) of 61.5%. For the same compound, the viability, T/C (second compound 0.0316 µM, first compound 0.0316 µM) was 81.6%, the viability, T/C (second compound 0.0316 µM, first compound 0.1 µM) was 78% and the viability, T/C (second compound 0.0316 µM, first compound 0.316 µM) was 77.6%. For the same compound, the viability, T/C (second compound 0.0316 µM, first compound 1 µM) was 67.1%, the viability, T/C (second compound 0.0316 µM, first compound 3.16 µM) was 70.6% and the viability, T/C (second compound 0.0316 µM, first compound 10 µM) was 55.2%. The viability, T/C (second compound 0.1 µM, first compound 0.0316 µM) was 64.5%, the viability, T/C (second compound 0.1 µM, first compound 0.1 µM) was 66.1% and the viability, T/C (second compound 0.1 µM, first compound 0.316 µM) was 60%. For the same compound, the viability, T/C (second compound 0.1 µM, first compound 1 µM) was 58.2%, the viability, T/C (second compound 0.1 µM, first compound 3.16 µM) was 55.5% and the viability, T/C (second compound 0.1 µM, first compound 10 µM) was 39.8%. The viability, T/C (second compound 0.316 µM, first compound 0.0316 µM) was 47.3%, the viability, T/C (second compound 0.316 µM, first compound 0.1 µM) was 44.8% and the viability, T/C (second compound 0.316 µM, first compound 0.316 µM) was 41.2%. The viability, T/C (second compound 0.316 µM, first compound 1 µM) was 41.5%, the viability, T/C (second compound 0.316 µM, first compound 3.16 µM) was 40.6% and the viability, T/C (second compound 0.316 µM, first compound 10 µM) was 33.5%. It also gave a viability, T/C (second compound 1 µM, first compound 0.0316 µM) of 33.8%, a viability, T/C (second compound 1 µM, first compound 0.1 µM) of 30.1% and a viability, T/C (second compound 1 µM, first compound 0.316 µM) of 30.2%. For the same compound, the viability, T/C (second compound 1 µM, first compound 1 µM) was 28.3%, the viability, T/C (second compound 1 µM, first compound 3.16 µM) was 30.5% and the viability, T/C (second compound 1 µM, first compound 10 µM) was 20.9%.

Compound Cn1cnc2c(F)c(Nc3ccc(Br)cc3Cl)c(C(=O)NOCCO)cc21 + Cc1nc(NC(=O)N2CCCC2C(N)=O)sc1-c1ccnc(C(C)(C)C(F)(F)F)c1 has an IC50 (second compound 0.0316 µM) of 75.8 nM, an IC50 (second compound 0.1 µM) of 80.6 nM and an IC50 (second compound 0.316 µM) of 61.6 nM. For the same compound, the IC50 (second compound 1 µM) was 42.1 nM, the IC50 (second compound 3.16 µM) was 19.6 nM and the IC50 (second compound 10 µM) was less than 9.49 nM. For the same compound, the viability, T/C (second compound 0.0316 µM, first compound 0.00949 µM) was 86%, the viability, T/C (second compound 0.0316 µM, first compound 0.03 µM) was 63.5% and the viability, T/C (second compound 0.0316 µM, first compound 0.0949 µM) was 47.3%. For the same compound, the viability, T/C (second compound 0.0316 µM, first compound 0.3 µM) was 32.2%, the viability, T/C (second compound 0.0316 µM, first compound 0.949 µM) was 18.7% and the viability, T/C (second compound 0.0316 µM, first compound 3 µM) was 12%. The viability, T/C (second compound 0.1 µM, first compound 0.00949 µM) was 85.7%, the viability, T/C (second compound 0.1 µM, first compound 0.03 µM) was 70.2% and the viability, T/C (second compound 0.1 µM, first compound 0.0949 µM) was 44.1%. The viability, T/C (second compound 0.1 µM, first compound 0.3 µM) was 30.1%, the viability, T/C (second compound 0.1 µM, first compound 0.949 µM) was 21% and the viability, T/C (second compound 0.1 µM, first compound 3 µM) was 10.4%. The viability, T/C (second compound 0.316 µM, first compound 0.00949 µM) was 74.5%, the viability, T/C (second compound 0.316 µM, first compound 0.03 µM) was 61.5% and the viability, T/C (second compound 0.316 µM, first compound 0.0949 µM) was 43.3%. It also gave a viability, T/C (second compound 0.316 µM, first compound 0.3 µM) of 25.9%, a viability, T/C (second compound 0.316 µM, first compound 0.949 µM) of 16.6% and a viability, T/C (second compound 0.316 µM, first compound 3 µM) of 8.73%. For the same compound, the viability, T/C (second compound 1 µM, first compound 0.00949 µM) was 66.4%, the viability, T/C (second compound 1 µM, first compound 0.03 µM) was 60.5% and the viability, T/C (second compound 1 µM, first compound 0.0949 µM) was 29%. The viability, T/C (second compound 1 µM, first compound 0.3 µM) was 20.8%, the viability, T/C (second compound 1 µM, first compound 0.949 µM) was 13.8% and the viability, T/C (second compound 1 µM, first compound 3 µM) was 5.73%. For the same compound, the viability, T/C (second compound 3.16 µM, first compound 0.00949 µM) was 64%, the viability, T/C (second compound 3.16 µM, first compound 0.03 µM) was 41.6% and the viability, T/C (second compound 3.16 µM, first compound 0.0949 µM) was 26.7%. The viability, T/C (second compound 3.16 µM, first compound 0.3 µM) was 15.1%, the viability, T/C (second compound 3.16 µM, first compound 0.949 µM) was 9.74% and the viability, T/C (second compound 3.16 µM, first compound 3 µM) was 5.86%. It also gave a viability, T/C (second compound 10 µM, first compound 0.00949 µM) of 49.8%, a viability, T/C (second compound 10 µM, first compound 0.03 µM) of 33.1% and a viability, T/C (second compound 10 µM, first compound 0.0949 µM) of 25.5%. It also gave a viability, T/C (second compound 10 µM, first compound 0.3 µM) of 12.2%, a viability, T/C (second compound 10 µM, first compound 0.949 µM) of 9.35% and a viability, T/C (second compound 10 µM, first compound 3 µM) of 3.2%.
